Usually Ki stands for a dissociation constant, usually derived from enzyme kinetics or from competition with a known ligand. A word on the IC50: it is the concentration at which inhibition is half-maximal.

For series [1], the target named is nicAChRs. The experiment in a line: displacement of [3H]epibatidine from rat brain homogenates. It counts as binding. A general note: Displacement assays read how much labelled ligand stays bound in the presence of the test substance.
A short description of series [2]: nicotine-induced locomotor activation (LMA), open field. Type of series: in vivo, SD rats. The protocol:
low S.C. doses of nicotine, repeated daily, cause progressive LMA related to mesolimbic DA release. This is reduced by lobeline and varenicline and therefore has predictive value as a screen for potential therapeutics in nicotine use disorder.
Methods: 2 groups of 6 adult SD rats of each sex were tested in an open-field apparatus for LMA. Each animal received a daily nicotine injection (0.5 mg/Kg SC) for 6 days with the last nicotine injection preceded (20 min) by 25 mg/Kg SC of lobinaline bi-N-oxide. Behavior was recorded and scored by an observer blind to treatment. Data was presented as line crosses/5 minutes with LMA over days 1-5 compared to LMA on day 6.

Series [3] is described as follows: conditioned place preference (abuse potential). It counts as in vivo, SD rats. The text has this:
In conditioned place preference a chamber with distinct cues is repeatedly paired with administration of the test drug. A second chamber is repeatedly paired with a control injection. After conditioning, a test phase allows the rat to move between the chambers. If a drug is “rewarding” (i.e. has abuse potential), the rat spends more time in the drug-associated chamber. If it is aversive, the opposite result is obtained.
Methods: 6 male and 6 female SD rats were used for each drug and dose. Test drugs (5 or 25 mg/kg lobinaline, or 25 mg/Kg of lobinaline bi-N-oxide S.C) were paired with the “less preferred” compartment (standard for drugs that may be weakly reinforcing) for 20 minutes. On the next day, rats received a control (DMSO/saline) injection and were placed in the preferred chamber. After three repeated pairings (test and control), the subjects were given access to both chambers and the time spent in each compartment was recorded and scored by an observer blind to treatment. Analysis was by two way ANOVA with post hoc Bonnferoni with significance set at p<0.05. Results. Most animals spent most of the test period in the compartment originally preferred in the drug-free state, and there were no significant differences between drug and vehicle controls.

Series [4] concerns the target T1, DAT (Rattus norvegicus, UniProt P23977). Nature of the series: DA clearance in striatum of anesthetized rats by in vivo electrochemistry (high-speed chronoamperometry), Example 8. As to conditions: for reduction in DA clearance: striatum, 1 minute after local application (lobinaline ~250 nl 1 mM; 403, 419 ~300 nl 250 μM), FIGS. 7-9; for increase in amplitude of DA signal: ~300 nl, 250 μM local application, FIGS. 8, 9. On the set-up: DA clearance in striatum and nucleus accumbens of urethane-anesthetized SD rats; from tissue; host or cells: striatum / nucleus accumbens of living anesthetized SD rats; species or system SD rats. The protocol: DA clearance in striatum and nucleus accumbens of urethane-anesthetized SD rats was monitored by in vivo electrochemistry using high-speed chrono-amperometry [see 36]. After obtaining reproducible signals for locally applied DA, vehicle or drug was applied slowly over 10-30 sec, then 30-60 sec later the next application of DA was made, with subsequent DA applications at 5-minute intervals for 25-30 min. The DA kinetic data from each animal was analyzed using FAST software (Quanteon). […] These effects were no longer seen 3-5 minutes after lobinaline ejection. They are consistent with simple competitive inhibition of the DAT by lobinaline. […] However, the lobinaline N-oxides produce different effects. Representative data from lobinaline N-oxide, at the same concentration used for lobinaline (1 mM in 250 nl medium) are shown in FIG. 6. […] This is entirely consistent with effects on synaptosomal [3H]DA uptake in vitro above, and probably represents competitive inhibition. However, after exposure to the N-oxide there is a significant and prolonged (c20 min) increase in the first order rate of decay of the DA peak. […] This increase in rate constant induced by the N-oxide varied from 20× to 2× at increasing depths in the DV gradient.
The uptake rate of locally applied DA (˜100 nl; 200 μM) was measured before and 1 minute after local application of lobinaline (˜250 nl; 1 mM), 403 (˜300 nl; 250 μM) or 419 (˜300 nl; 250 μM) (FIGS. 7, 8, and 9).

Series [5] can be described thus: Drinking in the dark model of binge drinking. It counts as in vivo, C57Bl/6J mice. As to conditions: 25 mg/Kg SC. The protocol:
“Drinking in the dark” is a model for binge drinking in which C57Bl/6J mice are given limited access to alcohol during their dark cycle. With repeated daily access, mice will voluntarily drink to blood alcohol levels above 150 mg/dl. Lobeline reduces alcohol consumption in this model and it has predictive validity in that both naltrexone and acamprosate are active.
Methods: 8 male and 8 female mice were used for each of these studies and scoring was by an observer blind to treatment. Statistical analysis was by ANOVA followed by Bonnferoni posthoc with significance at p<0.05.

The target of series [6] is T1, DAT. Nature of the series: [3H]DA uptake into rat striatal synaptosomes. Type of series: biochemical. More on the design: from tissue; host or cells: rat striatum (synaptosomes; homogenate). As to conditions: compound added 15 min before [3H]DA, 30 min at 37° C, read-out: IC50, inhibition of [3H]-DA uptake.
Procedure: Lobinaline or the N-oxides were added 15 min before addition of [3H]DA. Synaptosomal uptake of [3H]DA was measured after 30 min incubation at 37° C.
Series [7] is described as follows: aqueous solubility. Type of series: physicochemical. The text has this: Lobinaline (FIG. 1), was isolated from plant material and identified as the first-known binitrogenous plant alkaloid more than 80 years ago [27]. The applicants began to test its pharmacological activity after identifying Lobelia cardinalis as a novel source of nicAChR activity by high throughput screening in 2005 [26]. This plant species has no history of abuse, or traditional medicinal use of relevance to SUDs. […] These actions support lobinaline as a lead compound for the treatment of SUDs, particularly alcohol and nicotine use disorders. […] Lobinaline also appears to have appropriate pharmacokinetics and low toxicity. […] Conversely, this makes it a good test of the ability of target-directed evolution to generate novel inhibitors of the DAT in mutant plant cells.
Lobinaline and the “mono”-N-oxide were separated from plant and culture material by acid/base extraction, but the bi-N-oxide was derived from lobinaline using 3-chloroperbenzoic acid. All these compounds were separated by column chromatography with identity and purity confirmed by LC/MS.

Series [8] concerns the target T1, DAT. The experiment in a line: dopamine uptake in striatum of isoflurane-anesthetized rats by in vivo electrochemistry, Examples 19-20. On the set-up: DA clearance in striatum and nucleus accumbens of urethane-anesthetized SD rats; from tissue; host or cells: striatum / nucleus accumbens of living anesthetized SD rats; species or system SD rats. The protocol:
After obtaining reproducible signals for locally applied DA (50-75 nl, 200 μM) to produce a control DA peak height below 1 uM, vehicle or drug was locally applied slowly over 10-30 sec (˜500 nl 250 μM), then 60 sec later the next application of DA was performed, with subsequent DA applications at 5-min intervals for 25 min. […] The DA kinetic data from each animal were analyzed using FAST software (Quanteon, LLC, Nicholasville KY USA). […] These parameters were compared between pre- and post-drug application by one-way ANOVA with Tukey's post hoc analysis, with significance assigned at p<0.05.

Series [9] addresses T1, DAT. On the set-up: from tissue; host or cells: rat striatum (synaptosomes; homogenate). As to conditions: literature values [33], [34]; read-out: IC50, DA uptake under similar conditions; cited from earlier work.
The subject of series [10] is nicAChR. Nature of the series: 45Ca2+ entry into SHSY5Y cells. It counts as cell-based. As to conditions: SHSY5Y cells; antagonist 1 uM. The text has this:
Effects of lobinaline and nicotine on ^45Ca^2+ entry into SHSY5Y cells: nicAChR function can be evaluated semi-quantitatively in this cell line by measuring ^45Ca^2+ entry in response to nicotine. […] The lobinaline N-oxides have not yet been tested in this system.

Series [11] concerns nicAChRs. The experiment in a line: [3H]DA release from superfused rat striatal slices. Type of series: cell-based. As to conditions: antagonist 10 μM. The protocol:
Effects of lobinaline and nicotine on [3H]DA release from superfused rat striatal slices (ref 5): rat brain striatal slices were incubated with [3H]DA for 30 min at […] before transfer to superfusion chambers. […] To evaluate the role of nicAChRs, striatal slices preloaded with [3H]-DA were pretreated with the nicAChR antagonist mecamylamine (10 μM) prior to superfusion of lobinaline (100 μM). […] With the data above from SHSY5Y cells, this supports a partial agonist action of lobinaline at nicAChRs. The N-oxides have not yet been tested in this system. Lobinaline has weak agonist effects on nicAChRs, but also has as yet unquantified antagonist effects (i.e. it acts as a partial agonist at nicAChRs).

Read-outs that look alike come from different tables or passages of the source.

T1 sequence (P23977 whole entry): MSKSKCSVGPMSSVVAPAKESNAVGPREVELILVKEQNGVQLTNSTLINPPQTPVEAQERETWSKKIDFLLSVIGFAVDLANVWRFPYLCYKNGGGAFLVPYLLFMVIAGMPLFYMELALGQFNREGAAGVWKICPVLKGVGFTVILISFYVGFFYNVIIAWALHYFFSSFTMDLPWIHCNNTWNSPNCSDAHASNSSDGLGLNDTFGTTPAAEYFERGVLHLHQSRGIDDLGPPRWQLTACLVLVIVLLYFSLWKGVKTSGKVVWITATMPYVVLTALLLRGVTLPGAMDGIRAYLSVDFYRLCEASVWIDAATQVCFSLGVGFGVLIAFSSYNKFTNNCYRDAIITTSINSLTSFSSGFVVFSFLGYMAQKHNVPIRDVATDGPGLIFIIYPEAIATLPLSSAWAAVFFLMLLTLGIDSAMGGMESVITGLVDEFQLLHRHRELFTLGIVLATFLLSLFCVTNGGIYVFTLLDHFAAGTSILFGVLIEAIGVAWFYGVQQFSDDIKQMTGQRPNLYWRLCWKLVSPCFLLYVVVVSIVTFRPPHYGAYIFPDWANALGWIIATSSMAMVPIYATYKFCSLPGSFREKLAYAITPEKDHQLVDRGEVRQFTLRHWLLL

As to `C[N+]1([O-])CCCC2C(c3ccccc3)C(C3=[N+]([O-])CCCC3)C(c3ccccc3)CC21` (centres unmarked) [lobinaline bi-N-oxide], in [1], the Ki stood at 6500 nM and the “character of [3H]epibatidine displacement” value is “monophasically displaced”. For the same compound, the “effect on nicotine-induced LMA sensitization trend” value in [2] (25 mg/Kg SC 20 min before nicotine 0.5 mg/Kg SC on day 6) is on record as “reversed in both sexes”. Besides, the “individual animals showing the same trend” value in [2] (day 6 vs days 1-5, repeated measures) is reported as 10/12. Besides, the overt toxicity entry in [3] (after 3 repeated drug administrations) is on record as “no signs of overt toxicity”. Moreover, in series [3] (lobinaline 5 or 25 mg/kg, bi-N-oxide 25 mg/Kg S.C), the “sedation or locomotor activation” value was “no sedation or locomotor activation”. In addition, the “conditioned place preference or aversion” value in series [3] (lobinaline 5 or 25 mg/kg, bi-N-oxide 25 mg/Kg S.C, three pairings) is reported as “neither lobinaline nor the lobinaline bi-N-oxide produced conditioned place preference or aversion”. In series [4] (rat, in vivo), the “effects on the DAT in vivo compared with mono-N-oxide” value is recorded as “less potent than the “natural” mono-N-oxide”. In series [4], the “reduction in DA clearance” value is given as 40% and the “increase in amplitude of DA signal” value was determined as 4 fold. In series [5], the “food or water intake” value is on record as “no reduction in food or water intake” and the overt toxicity entry is recorded as “neither compound produced overt toxicity”. Further, the IC50 in series [6] was found to be 1190 nM.
Regarding `C[N+]1([O-])CCCC2C(c3ccccc3)C(C3=NCCCC3)C(c3ccccc3)CC21` (centres unmarked) [lobinaline N-oxide, lobinaline mono-N-oxide], the “character of [3H]epibatidine displacement” value in [1] is “more weakly with a multiphasic displacement curve”. Also, in [4] (1 mM in 250 nl medium, FIG. 6), the “increase in amplitude of the DA signal” value is listed as “twofold increase”. For the same compound, in series [4] (after exposure, 1 mM in 250 nl), the “duration of increase in first order rate of decay of the DA peak” value is listed as about 20 min. In series [4] (dorso-ventral position −5.5 mm, remains after 16 minutes), the “increase in first order rate constant of DA decay” value is recorded as “about three-fold”. Besides, in series [4], the “reduction in DA clearance” value was determined as 60% and the “increase in amplitude of DA signal” value was “doubling”. Further, the aqueous solubility result in series [7] is “much more soluble than lobinaline”. In addition, the IC50 in series [6] amounted to 517 nM. The “DA clearance parameters, dorsal striatum, early changes” value in series [8] (DV-3.5 to DV-5.5 mm, FIG. 12) is “increase in T80 and clearance rate that reflects the increase in peak amplitude, with no change in k−1”. In series [8] (DV-3.5 to DV-5.5 mm, up to 26 minutes after micro-injection, FIG. 12), the “DA peak amplitude, dorsal striatum” value was “marked and prolonged (but variable) increase”. In series [8] (DV-6 to −7.5 mm (shell of nucleus accumbens), up to 26 minutes, FIG. 13), the “DA peak amplitude, ventral striatum” value was “marked and consistent increase”. The “DA clearance parameters, ventral striatum” value in series [8] (DV-6 to −7.5 mm, FIG. 13) is “increase in clearance rate and k−1 at 21 and 26 minutes”. Besides, in series [8] (after 11-26 minutes, FIG. 12), the “DA clearance parameters, dorsal striatum, later” value was “increase in both uptake rate and k−1 with little change in T80”. In addition, in series [8] (over four local applications of dopamine), the “duration of increase in DA amplitude” value is listed as “at least 20 minutes”. Further, in series [8] (relative to % control), the “effect on DA clearance parameters” value is “reduced immediately after microinjection but increased later”. In addition, in series [8] (single local application ~500 nl 250 μM, striatum, FIGS. 10, 11), the “effect on amplitude of the DA signal” value is recorded as “increase in amplitude”.
With `CC(NC(C)(C)C)C(=O)c1cccc(Cl)c1` (centres unmarked) [bupropion], in series [9], the IC50 was 1900 nM.
As to `CNC1(C)C2CCC(C2)C1(C)C` (centres unmarked) [mecamylamine], the “inhibition of lobinaline-fraction-evoked 45Ca2+ entry by antagonist” value in series [10] is reported as “completely inhibited”. Further, the “effect of antagonist pretreatment on lobinaline (100 μM)-evoked fractional [3H] release” value in [11] is given as “significantly attenuated”.

(Values after patent US12539298B2, “Lobinaline N-oxides as positive allosteric modulators of the dopamine transporter with potential value in the treatment of substance abuse disorders” (University of Kentucky Research Foundation, priority 2019, dated 2026).)
